Earlier results on three compounds are cited in patent EP0358033B1, “Radical polymerizable compositions and their use” (Henkel Kommanditgesellschaft auf Aktien, priority 1988, dated 1990).

The conditions of this data set: free acid.

Consider `O=C(O)C(Cl)(Cl)Cl` [Trichloressigsäure], for which the pKS-Wert is reported as ~0,6.

As for `O=C(O)C(Cl)Cl` [Dichloressigsäure], the pKS-Wert was ~1,3.

Turning to `CC(=O)O` [Essigsäure], the pKS-Wert is reported as ~4,76.
